In patent US7304057B2, “Substituted 6-membered N-heterocyclic compounds and method for their use as neurological regulator” (Institute of Pharmacology and Toxicology Accademy of …, priority 2001, dated 2007):

Assays:
[1] = system: chick embryos dorsal root ganglia; assay: chick embryo dorsal root ganglion cultures free of serum, neurite process scoring; type: cell-based; conditions: 48 h; for Average scoring: score 0-3 of neurite processes, average of 20 ganglia, NGF-only control 1.0
Method: The neurotrophic activity of compounds of the present invention can be determined through several biological models in vitro, e.g. the model of chick embryos dorsal root ganglion cultures free of serum in vitro.
In a sterile environment, dorsal root ganglia were dissected from chick embryos of 8 days gestation and inoculated in rat rail collagen coated culture bottles (5 to 6 dorsal root ganglia per bottle, and two bottles per dosage). After 1 hour of attachment in a 37° C., 5% CO2 incubator, NGF (0.30 ng/ml) containing culture medium free of serum (DMEM) and the compound of example 4 of the present invention were added. The control groups were treated only with the same amount of NGF and culture medium. […] The representative micrographic pictures showing that compound of example 4 promotes the growth of chick embryos dorsal root ganglia processes were give in FIG. 1. The results of illustrative compound of example 4 at different concentrations promoting the growth of chick embryos dorsal root ganglia processes were outlined in table 1, wherein the scoring is the average scoring of 20 ganglia.

[2] = system: mice sympathetic nerve endings damaged by 6-hydroxy-dopamine (6-OHDA); assay: adult mice sympathetic nerve endings damaged by 6-OHDA, residual noradrenaline in submaxillary glands; type: in vivo; conditions: 5 mg/kg sc, 6-OHDA 8 mg/kg ip, Kunming female mice; FIG. 3, **P<0.01 vs model control group
Method: The neurotrophic activity of the compounds of the present invention can also be determined in several animal pharmacological models in vivo, such as the model of adult mice sympathetic nerve endings damaged by 6-hydroxy-dopamine (6-OHDA).
Kunming species female mice (♀) having a body weight of 18-22 g are randomly divided into the following groups: normal control group, model control group, FK506 (2 mg/kg) group, and the group of compound of the present invention (5 mg/kg) (10 mice per group). The mice are administrated with 6-OHDA (8 mg/kg) by intraperitoneal injection (ip) before 4 hours and after 4 continuous days of subcutaneous injection (sc) of the compound, while the control groups are administrated with the equivalent quantity of carrier by subcutaneous injection. After two weeks of the last administration, the mice are killed by luxation, and the two submaxillary glands of each of the mice are rapidly excised and weighed, placed in a glass grinder, then is homogenated with a homogenating liquid containing internal-standard, and centrifuged at 2000 g for 30 minutes. 20 μL of the obtained supernatant is directly injected in an HPLC-electrochemical detector to measure the content of noradrenaline (NE) in the submaxillary glands of the mice.

CCOC(=O)C(CC(C)C)NC(=O)[C@@H]1CSCCN1S(=O)(=O)c1ccc(C)cc1 (stereo partly drawn) [Example 4, 2-{[(3R)-4-(4-toluenesulfonyl)thiomorpholine-3-carbonyl]amino}-4-methyl-pentanoic acid ethyl ester]
Average scoring ([1]; 0.1 pM compound + NGF (0.3 ng/mL)): 2.15 | Average scoring ([1]; 1.0 pM compound + NGF (0.3 ng/mL)): 2.16 | Average scoring ([1]; 10 pM compound + NGF (0.30 ng/mL)): 1.50 | growth of chick embryos dorsal root ganglia processes ([1]; concentration of from 0.1 to 1.0 pmol/L, with NGF (0.30 ng/ml)): promote the growth of chick embryos dorsal root ganglia processes | residual NE level in the submaxillary glands [2]: raise the residual NE level in the submaxillary glands of the mice
